# Structures can show the parent of a compound that is named as a salt.
# Target: T1, human NHE-1 (Homo sapiens, UniProt P19634)
# T1 construct: expressed in transfected cells; host or cells: LAP-1 cells (parental line without endogenous NHE activity), stably transfected, G418 selection
# Experiment: FLIPR assay for NHE-1 inhibition by measurement of the recovery in pHi in transfected cell lines
# Format: cell-based
# Conditions: transfected LAP-1 cell line expressing human NHE-1, BCECF fluorescence, read-out: NHE1 inhibition IC50
# Method: The NHE-1 inhibition IC50 [nM] was determined as follows:
# FLIPR assay for determining NHE-1 inhibitors by measurement of the recovery in pHi in transfected cell lines which express human NHE-1
# The assay is carried out in an FLIPR (fluorometric imaging plate reader) with black-walled 96-well microtiter plates with clear bases. […] [The growth medium for the transfected cells (Iscove+10% fetal calf serum) additionally contains G418 as selection antibiotic in order to ensure the presence of the transfected sequences.]
# The actual assay starts with the removal of the growth medium and addition of 100 μl of loading buffer per well (5 μM BCECF-AM [2′,7′-bis(carboxyethyl)-5-(and -6-)carboxyfluorescein, acetoxymethyl ester] in 20 mM NH4Cl, 115 mM choline chloride, 1 mM MgCl2, 1 mM CaCl2, 5 mM KCl, 20 mM HEPES, 5 mM glucose; pH 7.4 [adjusted with KOH]). The cells are then incubated at 37° C. for 20 minutes. This incubation leads to loading of the cells with the fluorescent dye whose fluorescence intensity depends on pHi, and with NH4Cl which makes the cells slightly alkaline.
# [The nonfluorescent dye precursor BCECF-AM is, as ester, membrane-permeable. The actual dye BCECF is not membrane-permeable but is liberated inside cells by esterases.]
# After this incubation for 20 minutes, the loading buffer which contains NH4Cl and free BCECF-AM is removed by washing three times in a cell washer (Tecan Columbus) with in each case 400 μl of washing buffer (133.8 mM choline chloride, 4.7 mM KCl, 1.25 mM MgCl2, 1.25 mM CaCl2, 0.97 mM K2HPO4, 0.23 mM KH2PO4, 5 mM HEPES, 5 mM glucose; pH 7.4 [adjusted with KOH]). The residual volume remaining in the wells is 90 μl (50-125 μl possible). This washing step removes the free BCECF-AM and results, as a consequence of the removal of the external NH4^+ ions, in intracellular acidification (˜pHi 6.3-6.4).
# Since the equilibrium of intracellular NH4^+ with NH3 and H^+ is disturbed by the removal of the extracellular NH4^+ and by the subsequent instantaneous passage of the NH3 through the cell membrane, the washing process results in H^+ remaining inside the cells, which is the cause of the intracellular acidification. This may eventually lead to cell death if it persists long enough.
# It is important at this point that the washing buffer is sodium-free (<1 mM) because extracellular sodium ions would lead to an instantaneous recovery of the pHi through the activity of the cloned NHE isoforms.
# It is likewise important for all the buffers used (loading buffer, washing buffer, recovery buffer) not to contain any HCO3^− ions, because the presence of bicarbonate would lead to activation of interfering bicarbonate-dependent pHi regulatory systems present in the parental LAP-1 cell line.
# The microtiter plates with the acidified cells are then (up to 20 minutes after the acidification) transferred to the FLIPR. In the FLIPR, the intracellular fluorescent dye is excited by light with a wavelength of 488 nm generated by an argon laser, and the measured parameters (laser power, illumination time and aperture of the CCD camera incorporated in the FLIPR) are chosen so that the average fluorescence signal per well is between 30 000 and 35 000 relative fluorescence units.
# The actual measurement in the FLIPR starts with a photograph being taken by the CCD camera every two seconds under software control. After ten seconds, the recovery of the intracellular pH is initiated by adding 90 μl of recovery buffer (133.8 mM NaCl, 4.7 mM KCl, 1.25 mM MgCl2, 1.25 mM CaCl2, 0.97 mM K2HPO4, 0.23 mM KH2PO4, 10 mM HEPES, 5 mM glucose; pH 7.4 [adjusted with NaOH]) by means of the 96-well pipettor incorporated in the FLIPR.
# Positive control wells (100% NHE activity) are those to which pure recovery buffer is added, while negative controls (0% NHE activity) receive washing buffer. Recovery buffer with twice the concentration of test substance is added to all the other wells. Measurement in the FLIPR terminates after 60 measurements (two minutes). […]
# T1 sequence (P19634 whole entry): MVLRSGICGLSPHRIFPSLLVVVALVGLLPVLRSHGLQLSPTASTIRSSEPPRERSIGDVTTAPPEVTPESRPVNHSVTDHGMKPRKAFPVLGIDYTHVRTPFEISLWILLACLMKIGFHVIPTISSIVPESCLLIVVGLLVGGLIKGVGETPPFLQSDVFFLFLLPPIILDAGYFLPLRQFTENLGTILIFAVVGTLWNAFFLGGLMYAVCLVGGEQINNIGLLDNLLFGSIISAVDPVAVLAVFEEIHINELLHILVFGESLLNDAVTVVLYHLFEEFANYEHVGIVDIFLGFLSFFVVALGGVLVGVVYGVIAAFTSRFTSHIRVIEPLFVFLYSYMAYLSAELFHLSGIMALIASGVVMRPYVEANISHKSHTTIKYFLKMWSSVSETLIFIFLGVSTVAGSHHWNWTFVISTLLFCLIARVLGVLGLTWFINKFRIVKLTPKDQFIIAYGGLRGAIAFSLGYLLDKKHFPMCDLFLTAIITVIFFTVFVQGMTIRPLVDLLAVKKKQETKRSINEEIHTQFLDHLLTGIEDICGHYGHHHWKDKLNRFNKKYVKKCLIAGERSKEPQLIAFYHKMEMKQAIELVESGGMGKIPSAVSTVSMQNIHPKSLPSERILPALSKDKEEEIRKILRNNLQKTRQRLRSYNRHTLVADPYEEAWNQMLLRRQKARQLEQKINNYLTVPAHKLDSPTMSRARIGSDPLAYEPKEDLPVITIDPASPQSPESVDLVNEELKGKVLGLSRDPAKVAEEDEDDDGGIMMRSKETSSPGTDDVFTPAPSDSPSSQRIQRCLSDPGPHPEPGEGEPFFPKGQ
row,SMILES,IC50
1,"NC(N)=NC(=O)c1cccc(S(F)(F)(F)(F)F)c1 [Example 1, 3-Pentafluorosulfanylbenzoylguanidine, Hydrochloride]",237 nM
2,"N=C(N)NC(=O)c1ccc(S(F)(F)(F)(F)F)cc1Oc1ccc(F)cc1 [Example 5, N-[2-(4-Fluorophenoxy)-4-pentafluorosulfanylbenzoyl]guanidine]",12000 nM
3,"N=C(N)NC(=O)c1ccc(S(F)(F)(F)(F)F)cc1Cl [Example 4, N-[2-Chloro-4-pentafluorosulfanylbenzoyl]guanidine]",220 nM

# These reach a lower IC50. Values come first.
row,IC50,SMILES
1,131 nM,"NC(N)=NC(=O)c1ccc(S(F)(F)(F)(F)F)cc1 [Example 2, 4-Pentafluorosulfanylbenzoylguanidine, Hydrochloride]"
2,20.3 nM,"Cc1ccc(S(F)(F)(F)(F)F)cc1C(=O)N=C(N)N [Example 6, N-(2-Methyl-5-pentafluorosulfanylbenzoyl)guanidine]"
3,14.5 nM,"Cc1cc(S(F)(F)(F)(F)F)ccc1C(=O)N=C(N)N [Example 3, 4-Pentafluorosulfanyl-2-methylbenzoylguanidine]"

# Reference: patent US8404893B2, “Pentafluorosulfanylbenzoylguanidines, processes for their preparation, their use as medicaments or diagnostic aids, and medicaments comprising them” (Sanofi-Aventis Deutschland GmbH, priority 2002, dated 2013)
